From patent US20150057246A1, “SILYL-CONTAINING HETEROCYCLIC COMPOUNDS AND METHODS OF USE THEREOF FOR THE TREATMENT OF VIRAL DISEASES” (priority 2012, published 2015)
Read-outs that look alike come from different tables or passages of the source.

How the values were obtained:
HCV 1b replicon = experiment: Cell-based HCV replicon assay (TaqMan), genotype 1b replicon; details: HCV genotype 1b replicon cells, replicon RNA by real time PCR, day 3, EC90 = concentration for ΔCT=3.2 over baseline
Procedure: Measurement of inhibition by compounds of the present invention was performed using the HCV replicon system. Several different replicons encoding different HCV genotypes or mutations were used. In addition, potency measurements were made using different formats of the replicon assay, including different ways of measurements and different plating formats. See Jan M. Vrolijk et al., A replicons-based bioassay for the measurement of interferons in patients with chronic hepatitis C, 110 J. VIROLOGICAL METHODS 201 (2003); Steven S. Carroll et al., Inhibition of Hepatitis C Virus RNA Replication by 2′-Modified Nucleoside Analogs, 278(14) J. BIOLOGICAL CHEMISTRY 11979 (2003). However, the underlying principles are common to all of these determinations, and are outlined below.
TaqMan®-Based Assay Protocol:
Compounds of the present invention were assayed for cell-based anti-HCV activity using the following protocol. Replicon cells were seeded at 5000 cells/well in 96-well collagen I-coated Nunc plates in the presence of the test compound. Various concentrations of test compound, typically in 10 serial 2-fold dilutions, were added to the assay mixture, with the starting concentration ranging from 250 μM to 1 μM. The final concentration of DMSO was 0.5%, fetal bovine serum was 5%, in the assay media. Cells were harvested on day 3 by the addition of 1× cell lysis buffer (Ambion cat #8721). The replicon RNA level was measured using real time PCR (TaqMan® assay). The amplicon was located in 5B. The PCR primers were: 5B.2F, ATGGACAGGCGCCCTGA (SEQ. ID NO. 1); 5B.2R, […] (SEQ. ID NO. 2); the probe sequence was FAM-labeled CACGCCATGCGCTGCGG (SEQ. ID NO. 3). GAPDH RNA was used as endogenous control and was amplified in the same reaction as NS5B (multiplex PCR) using primers and VIC-labeled probe recommended by the manufacturer (PE Applied Biosystem). The real-time […] reactions were run on ABI PRISM 7900HT Sequence Detection System using the following program: 48° C. for 30 minutes, 95° C. for 10 minutes, 40 cycles of 95° C. for 15 sec, 60° C. for 1 minute. The ΔCT values (CT5B-CTGAPDH) were plotted against the concentration of test compound and fitted to the sigmoid dose-response model using XLfit4 (MDL). EC50 was defined as the concentration of inhibitor necessary to achieve ΔCT=1 over the projected baseline; EC90 the concentration necessary to achieve ΔCT=3.2 over the baseline. Alternatively, to quantitate the absolute amount of replicon RNA, a standard curve was established by including serially diluted T7 transcripts of replicon RNA in the Taqman assay. All TaqMan® reagents were from PE Applied Biosystems. Such an assay procedure was described in detail in e.g. Malcolm et al., Antimicrobial Agents and Chemotherapy 50: 1013-1020 (2006).
HCV replicon EC50 assay data for various replicons and mutants was calculated for selected compounds of the present invention using this method and is provided in the tables above herein.

HCV 2b replicon = experiment: Cell-based HCV replicon assay (TaqMan), genotype 2b replicon; details: Hepatitis C virus, 72 h, read-out: 2b EC90, HCV genotype 2b replicon cells, replicon RNA by real time PCR, day 3; EC90 = concentration for ΔCT=3.2 over baseline
Outline: (§1)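 Replicon cells seeded at 5000 cells/well with compound as 10 serial 2-fold dilutions (top 250 μM to 1 μM), 0.5% DMSO, 5% FBS, 3 days. NS5B replicon RNA quantified by multiplex TaqMan RT-PCR against GAPDH. EC50 = concentration giving ΔCT=1 over baseline; EC90 = ΔCT=3.2, from sigmoid fit.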

HCV 1a Y93H replicon = experiment: Cell-based HCV replicon assay (TaqMan), 1a Y93H mutant replicon; details: EC90 = concentration for ΔCT=3.2 over baseline
Outline: as §1

HCV 1a replicon = experiment: Cell-based HCV replicon assay (TaqMan), genotype 1a replicon; details: HCV genotype 1a replicon cells, replicon RNA by real time PCR, day 3, EC90 = concentration for ΔCT=3.2 over baseline
Outline: as §1

[1] = Hepatitis C virus, 72 h, read-out: 1a Y93H EC90, HCV 1a Y93H mutant replicon cells, replicon RNA by real time PCR, day 3

Structure (SMILES) | EC90 (HCV 1b replicon; Hepatitis C virus, 72 h) | EC90 (HCV 2b replicon) | EC90 (HCV 1a Y93H replicon; [1]) | EC90 (HCV 1a replicon; Hepatitis C virus, 72 h) | EC90 (HCV 1b replicon) | EC90 (HCV 1a Y93H replicon; read-out: 1a Y93H EC90, HCV 1a Y93H mutant replicon cells, replicon RNA by real time PCR, day 3) | EC90 (HCV 1a replicon)
COC(=O)N[C@@H](CC1CC1)C(=O)N1C[Si](C)(C)C[C@H]1c1nc2ccc3cc(-c4ccc(-c5cnc([C@@H]6CCCN6C(=O)[C@@H](NC(=O)OC)C(C)C)[nH]5)cc4)ccc3c2[nH]1 [Compound 77] | 0.03 nM | 221 nM | > 1000 nM | 0.56 nM |  |  | 
CCN(CC)[C@H](C(=O)N1C[Si](C)(C)C[C@H]1c1nc2ccc3cc(-c4ccc(-c5cnc([C@@H]6CCCN6C(=O)[C@@H](NC(=O)OC)C(C)C)[nH]5)cc4)ccc3c2[nH]1)c1ccccc1 [Compound 78] | 0.03 nM | 6.5 nM | 514 nM | 0.14 nM |  |  | 
COC(=O)N[C@H](C(=O)N1C[Si](C)(C)C[C@H]1c1nc(Cl)c(-c2ccc(-c3ccc4c(ccc5nc([C@@H]6CCCN6C(=O)[C@@H](NC(=O)OC)C(C)C)[nH]c54)c3)cc2)[nH]1)C(C)C [Compound 96] | 0.69 nM | 263 nM | 368 nM | 0.24 nM |  |  | 
COC(=O)N[C@H](C(=O)N1C[Si](C)(C)C[C@H]1c1nc2ccc3cc(-c4ccc(-c5cnc([C@@H]6C[C@H]7C[C@H]7N6C(=O)[C@@H](NC(=O)OC)C(C)C)[nH]5)cc4)ccc3c2[nH]1)C(C)C [Compound 105] |  | 301 nM |  |  | 0.02 nM | 605 nM | 0.26 nM
COC(=O)N[C@H](C(=O)N1C[Si](C)(C)C[C@H]1c1nc2ccc3cc(-c4ccc(-c5nc(Cl)c([C@@H]6C[C@H]7C[C@H]7N6C(=O)[C@@H](NC(=O)OC)C(C)C)[nH]5)cc4)ccc3c2[nH]1)C(C)C [Compound 108] | 0.02 nM | 543 nM | 151 nM | 0.04 nM |  |  | 
COC(=O)N[C@H](C(=O)N1CCC[C@H]1c1ncc(-c2ccc3cc(-c4ccc5c(ccc6nc([C@@H]7C[Si](C)(C)CN7C(=O)[C@@H](NC(=O)OC)C(C)C)[nH]c65)c4)ccc3c2)[nH]1)C(C)C [Compound 112] | > 1 nM | > 100 nM | > 100 nM | 0.046 nM |  |  | 
COC(=O)N[C@H](C(=O)N1CCC[C@H]1c1ncc(-c2ccc3cc(-c4ccc5c(ccc6nc([C@@H]7C[Si](C)(C)CN7C(=O)[C@@H](NC(=O)OC)C7CC7)[nH]c65)c4)ccc3c2)[nH]1)C1CC1 [Compound 114] | > 1 nM | > 100 nM | > 100 nM | 0.06 nM |  |  | 
COC(=O)N[C@@H](C(=O)N1CCC[C@@H]1c1ncc(-c2ccc3cc(-c4ccc5c(ccc6nc([C@H]7C[Si](C)(C)CN7C(=O)OC(C)(C)C)[nH]c65)c4)ccc3c2)[nH]1)C(C)C [Compound 116] | > 1 nM | > 100 nM | > 100 nM | > 1 nM |  |  | 
COC(=O)NC(C(=O)N1C[Si](C)(C)C[C@H]1c1nc2ccc3cc(-c4ccc5cc(-c6cnc([C@@H]7CCCN7C(=O)[C@H](NC(=O)OC)C(C)C)[nH]6)ccc5c4)ccc3c2[nH]1)[C@@H](C)OC (stereo partly shown) [Compound 117] | > 1 nM | > 100 nM | > 100 nM | 0.039 nM |  |  | 
COC(=O)N[C@H](C(=O)N1C[Si](C)(C)C[C@@H]1c1nc2ccc3cc(-c4ccc5cc(-c6cnc([C@H]7CCCN7C(=O)[C@H](NC(=O)OC)C(C)C)[nH]6)ccc5c4)ccc3c2[nH]1)C1CCOCC1 [Compound 118] | > 1 nM | > 100 nM | > 100 nM | 0.023 nM |  |  | 
